Reference: US10441681B2, “Materials and methods for nerve grafting” (University of Florida Research Foundation, Inc., priority 2001, dated 2019)
“Also recorded” adds a separate entry of the source.

Columns and labels:
MMP = assay: In situ zymography of nerve explants (net gelatinolytic activity); assay type: biochemical, rat; conditions: nerves cultured 2-day, 2% serum in the presence of GM6001
Description: In the control condition, the MMP inhibitor EDTA (30 mM) was included in the reaction buffer. After incubation for 24 h at 37° C., the sections were rinsed with PBS and fixed with 4% paraformaldehyde in phosphate buffer. The sections were rinsed with water and mounted using Citifluor.

[1] = system: embryonic chick DRG neurons; assay: Cryoculture assay of nerve explant cultures (predegeneration); assay type: cell-based; conditions: nerves cultured 2 days, 2% serum, in the presence of GM6001 (50 μM)
Schwann cell cultures = assay: Treatment of isolated Schwann cell cultures (toxicity); assay type: cell-based

For `CNC(=O)[C@H](Cc1c[nH]c2ccccc12)NC(=O)[C@@H](CC(=O)NO)CC(C)C` [GM6001], the “gelatinolytic activity in nerve explants” value (MMP) was “nearly undetectable; also recorded: markedly decreased”, the “increase in mean neurite length over uncultured control nerves” value [1] was 14% and the toxicity (Schwann cell cultures) was “very low toxicity”.
